Source: ChEMBL document CHEMBL1145600, “Molecular features crucial to the activity of pyrimidine benzamide-based thrombopoietin receptor agonists” (Bioorg Med Chem Lett, 2008)

What follows are compounds tested against T1, Thrombopoietin receptor (Homo sapiens, UniProt P40238) (assay: Agonist activity at TPO receptor).
T1 sequence (P40238 whole entry): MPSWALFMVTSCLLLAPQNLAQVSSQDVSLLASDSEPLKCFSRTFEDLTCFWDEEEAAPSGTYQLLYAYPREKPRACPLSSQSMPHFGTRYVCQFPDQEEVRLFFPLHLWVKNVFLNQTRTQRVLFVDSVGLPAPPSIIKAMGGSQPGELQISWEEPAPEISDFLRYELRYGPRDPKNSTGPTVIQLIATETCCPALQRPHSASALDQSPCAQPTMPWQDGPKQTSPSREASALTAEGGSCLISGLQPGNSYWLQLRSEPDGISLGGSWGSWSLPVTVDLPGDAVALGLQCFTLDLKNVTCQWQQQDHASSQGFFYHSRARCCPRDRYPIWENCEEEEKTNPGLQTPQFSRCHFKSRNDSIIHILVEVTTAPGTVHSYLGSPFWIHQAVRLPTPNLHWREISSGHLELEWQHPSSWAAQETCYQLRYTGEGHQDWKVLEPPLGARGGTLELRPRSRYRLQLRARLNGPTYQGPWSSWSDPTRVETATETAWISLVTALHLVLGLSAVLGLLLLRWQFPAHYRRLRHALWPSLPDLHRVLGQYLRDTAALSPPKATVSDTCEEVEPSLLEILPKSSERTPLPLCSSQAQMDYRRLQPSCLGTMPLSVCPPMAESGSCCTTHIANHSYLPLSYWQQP
Type: functional
Work on Cc1sc(N)nc1-c1cccc(C(F)(F)F)c1F yielded an EC50 of 540 nM. O=C(Nc1nc2c(s1)COc1ccccc1-2)c1ccc(Nc2ccncn2)cc1 was tested, and the EC50 was 520 nM. Work on Nc1nc(-c2ccc(F)c(C(F)(F)F)c2)cs1 yielded an EC50 of 100 nM. Compound Nc1nc(-c2cccc(OC(F)(F)F)c2F)cs1 has an EC50 of 32 nM. Nc1nc(-c2cc(C(F)(F)F)ccc2F)cs1 showed an EC50 of 5200 nM. Nc1nc(-c2ccc(F)c(C(F)(F)F)c2)c(F)s1 showed an EC50 of 89 nM. Nc1nc(-c2ccccc2F)cs1 showed an EC50 of 6800 nM. For Cc1sc(N)nc1-c1ccc(F)c(C(F)(F)F)c1, the EC50 was 180 nM. Compound Nc1nc(-c2c(F)cccc2F)cs1 has an EC50 greater than 10000 nM. Nc1nc(-c2ccc(C(F)(F)F)cc2F)cs1 was tested, and the EC50 was 260 nM. Compound O=C(Nc1nc2c(s1)COc1c(F)cccc1-2)c1ccc(Nc2ccncn2)cc1 has an EC50 of 1500 nM. Nc1nc(-c2cccc(C(F)(F)F)c2F)c(F)s1 showed an EC50 of 700 nM. With Nc1nc(-c2cccc(C(F)(F)F)c2F)cs1 the EC50 was 57 nM. For O=C(Nc1nc2c(s1)COc1c(Cl)cccc1-2)c1ccc(Nc2ccncn2)cc1, the EC50 was 530 nM.

What follows are compounds tested against T2, Thrombopoietin receptor (Homo sapiens) (UniProt P40238) (assay: Agonist activity at TPO receptor at 10 uM).
T2 sequence (whole entry): T1 sequence (P40238 whole entry)
Type: functional
Compound O=C(Nc1nc(-c2cccc(F)c2)cs1)c1ccc(Nc2ccncn2)cc1 has an Activity of 45%. Compound O=C(Nc1nc(-c2ccccc2C(F)(F)F)cs1)c1ccc(Nc2ccncn2)cc1 has an Activity of 38%. For O=C(Nc1nc(-c2c(F)cccc2F)cs1)c1ccc(Nc2ccncn2)cc1, the Activity was 0%. Compound Nc1nc(-c2c(F)cccc2F)cs1 has an Activity of 0%. O=C(Nc1nc(-c2ccccc2F)cs1)c1ccc(Nc2ccncn2)cc1 showed an Activity of 58%.
